Source: ChEMBL document CHEMBL5038654, “Discovery of Spiro-azaindoline Inhibitors of Hematopoietic Progenitor Kinase 1 (HPK1)” (ACS Med Chem Lett, 2022)

Legend:
[1] = target: T1, Mitogen-activated protein kinase kinase kinase kinase 1 (Homo sapiens, UniProt Q92918); assay: Inhibition of HPK1 (unknown origin) followed by anti-GST antibody incubated for 60 mins measured after 1 hr by TR-FRET based LanthaScreen Eu-Kinase binding assay
Cytochrome P450 3A4 = Cytochrome P450 3A4 (Homo sapiens, UniProt P08684); assay: Inhibition of CYP3A4 in human liver microsomes using testosterone as substrate by TDI- high-throughput based mass spectrometry method; format: ADME
Chain of Cytochrome P450 3A4 (P08684 whole entry): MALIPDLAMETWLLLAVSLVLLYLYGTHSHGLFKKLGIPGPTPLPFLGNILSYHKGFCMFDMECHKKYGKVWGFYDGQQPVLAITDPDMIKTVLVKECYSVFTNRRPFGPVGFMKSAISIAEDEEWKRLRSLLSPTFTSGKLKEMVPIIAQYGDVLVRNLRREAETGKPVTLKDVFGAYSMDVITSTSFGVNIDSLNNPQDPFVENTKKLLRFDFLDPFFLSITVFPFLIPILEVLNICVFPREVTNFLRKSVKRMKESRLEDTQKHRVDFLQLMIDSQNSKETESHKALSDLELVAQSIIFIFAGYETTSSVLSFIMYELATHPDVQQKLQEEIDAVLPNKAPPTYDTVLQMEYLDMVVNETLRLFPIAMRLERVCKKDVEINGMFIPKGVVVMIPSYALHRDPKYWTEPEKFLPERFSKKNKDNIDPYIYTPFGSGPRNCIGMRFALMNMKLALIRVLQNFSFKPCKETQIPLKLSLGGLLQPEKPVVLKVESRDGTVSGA

[2] = Metabolic stability in human liver microsomes assessed as intrinsic clearance followed by substrate addition incubated for 30 mins by LC-MS/MS analysis; format: ADME, Microsome; conditions: read-out: CLH
[3] = Metabolic stability in rat liver microsomes assessed as intrinsic clearance followed by substrate addition incubated for 30 mins by LC-MS/MS analysis; format: ADME, Microsome; conditions: read-out: CLH
[4] = Metabolic stability in mouse liver microsomes assessed as intrinsic clearance followed by substrate addition incubated for 30 mins by LC-MS/MS analysis; format: ADME, Microsome; conditions: read-out: CLH
[5] = Apparent permeability across apical to basolateral side in dog MDCK1 cells at 10 uM by LC-MS/MS analysis; format: ADME, cell-based, Canis lupus familiaris; conditions: for Papp A→B at 10 µM: MDCK
[6] = target: T1, Mitogen-activated protein kinase kinase kinase kinase 1; assay: Inhibition of HPK1 in human Jurkat E6.1 cells assessed as SLP76 phosphorylation incubated for 30 mins followed by anti-CD3, biotinylated anti-SLP76 and TMB substrate addition measured after 3 hrs by ELISA assay; format: cell-based
[7] = target: T1, Mitogen-activated protein kinase kinase kinase kinase 1; assay: Inhibition of HPK1 (unknown origin) preincubated for 30 mins with compound followed by Biotin-SLP-76 substrate in presence of ATP incubated for 60 mins measured after 1 hr by TR-FRET based HTRF enzymatic assay
[8] = Metabolic stability in mouse hepatocytes assessed as hepatic clearance; format: ADME, cell-based, Hepatocyte; set-up: dose or concentration left out as unconfirmed
[9] = Oral bioavailability in female C57BL/6 mouse at 25 mg/kg measured upto 24 hrs by LC-MS/MS analysis; format: ADME, organism-based; conditions: in vivo
[10] = Blood clearance in female C57BL/6 mouse at 1 mg/kg, iv administered as bolus dose measured upto 24 hrs by LC-MS/MS analysis; format: ADME, organism-based; conditions: whole blood
[11] = Metabolic stability in human hepatocytes assessed as hepatic clearance at 1 uM measured upto 3 hrs by LC-MS/MS analysis; format: ADME, cell-based, Hepatocyte
[12] = Volume of distribution in female C57BL/6 mouse at 1 mg/kg, iv administered as bolus dose measured upto 24 hrs by LC-MS/MS analysis; format: ADME, organism-based; conditions: in vivo
T-cell line = assay: Effects of compound on IL-2 production in human pan T-cells followed by anti-CD3/CD28-stimulation assessed as increase in IL-2 level incubated for 30 mins by ELISA method; format: functional, cell-based; conditions: 0.5 h
[13] = Metabolic stability in rat hepatocytes assessed as hepatic clearance; format: ADME, cell-based, Hepatocyte; set-up: dose or concentration left out as unconfirmed

T1 sequence (Q92918 whole entry): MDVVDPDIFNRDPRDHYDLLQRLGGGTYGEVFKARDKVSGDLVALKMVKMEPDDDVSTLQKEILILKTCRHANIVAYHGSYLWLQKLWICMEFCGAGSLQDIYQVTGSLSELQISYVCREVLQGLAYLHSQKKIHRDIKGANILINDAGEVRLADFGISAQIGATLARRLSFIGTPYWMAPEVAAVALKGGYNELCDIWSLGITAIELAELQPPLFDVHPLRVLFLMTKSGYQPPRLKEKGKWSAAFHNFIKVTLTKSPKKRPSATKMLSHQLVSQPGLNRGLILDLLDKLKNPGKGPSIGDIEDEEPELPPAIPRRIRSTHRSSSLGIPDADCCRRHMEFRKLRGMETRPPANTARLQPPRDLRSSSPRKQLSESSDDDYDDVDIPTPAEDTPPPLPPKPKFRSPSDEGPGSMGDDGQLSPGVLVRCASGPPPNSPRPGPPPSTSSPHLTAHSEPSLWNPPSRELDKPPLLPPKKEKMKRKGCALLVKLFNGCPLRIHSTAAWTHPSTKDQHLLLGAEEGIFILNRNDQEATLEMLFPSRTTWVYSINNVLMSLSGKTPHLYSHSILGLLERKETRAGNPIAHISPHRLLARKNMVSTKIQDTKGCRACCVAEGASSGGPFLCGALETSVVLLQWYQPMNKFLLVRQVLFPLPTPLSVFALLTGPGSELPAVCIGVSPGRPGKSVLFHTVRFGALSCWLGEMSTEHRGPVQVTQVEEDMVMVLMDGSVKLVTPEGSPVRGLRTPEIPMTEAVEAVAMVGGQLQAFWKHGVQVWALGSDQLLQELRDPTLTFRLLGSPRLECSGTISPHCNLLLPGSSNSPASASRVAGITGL

Ki [1] | IC50 (Cytochrome P450 3A4) | Papp A→B at 10 µM [5] | IC50 [6] | SMILES | further results
28 nM | 9800 nM |  |  | CN(C)C(=O)c1cc(-c2cnc3c(c2)C2(CCCC2)CN3)ccc1N | 
3.3 nM | 1600 nM |  |  | CCc1c[nH]c2ncc(-c3ccc(N)c(C(=O)N(C)C)n3)cc12 | predicted hepatic clearance [2]: 17 mL/min/kg; predicted hepatic clearance [3]: 28 mL/min/kg; predicted hepatic clearance [4]: 81 mL/min/kg
2.6 nM |  |  |  | CCc1c[nH]c2ncc(-c3ccc(N)c(C(=O)N(C)C)c3)c(Cl)c12 | 
5.2 nM | 1700 nM |  |  | CCc1c[nH]c2ncc(-c3cccc(C(=O)N(C)C)c3)cc12 | predicted hepatic clearance [2]: 18 mL/min/kg; predicted hepatic clearance [3]: 43 mL/min/kg; predicted hepatic clearance [4]: 84 mL/min/kg
 |  | 26 ×10⁻⁶ cm/s | 7900 nM | CN(C)C(=O)c1c(N)ccc(-c2cnc3c(c2Cl)[C@]2(CC[C@](C)(C#N)CC2)CN3)c1F | 
 | > 10000 nM |  |  | CN(C)C(=O)c1c(N)ccc(-c2cnc3c(c2Cl)C2(CCC2)CN3)c1F | 
43 nM | 6500 nM |  |  | Cc1c(-c2ccc(N)c(C(=O)N(C)C)c2F)cnc2c1C1(CC1)CN2 | 
2.8 nM |  |  |  | CCc1c[nH]c2ncc(-c3ccc(N)c(C(=O)N(C)C)c3)c(CC)c12 | 
0.4 nM |  |  |  | COc1ccccc1-c1c[nH]c2ncc(-c3ccc(N)c(C(=O)N(C)C)c3)cc12 | 
 |  | 6.5 ×10⁻⁶ cm/s | 1200 nM | CN(C)C(=O)c1c(N)ccc(-c2cnc3c(c2Cl)[C@]2(CC[C@@]4(CCCCNC4=O)C2)CN3)c1F | Ki [7]: 7.2 nM
2.4 nM |  |  |  | CCc1c[nH]c2ncc(-c3ccc(N)c(C(=O)N(C)C)c3)c(C)c12 | 
8.2 nM |  | 5.7 ×10⁻⁶ cm/s | 3000 nM | CN(C)C(=O)c1c(N)ccc(-c2cnc3c(c2Cl)[C@]2(CC[C@](C)(O)CC2)CN3)c1F | 
2.7 nM | 200 nM |  |  | CCc1c(Cl)[nH]c2ncc(-c3ccc(N)c(C(=O)N(C)C)c3)cc12 | 
2.1 nM | 500 nM |  |  | CCc1c[nH]c2ncc(-c3ccc(N)c(C(=O)N(C)C)c3)cc12 | predicted hepatic clearance [2]: 12 mL/min/kg; predicted hepatic clearance [3]: 25 mL/min/kg; predicted hepatic clearance [4]: 80 mL/min/kg
 |  | 7.1 ×10⁻⁶ cm/s | 1700 nM | CN(C)C(=O)c1c(N)ccc(-c2cnc3c(c2Cl)[C@]2(CC[C@@]4(CCCNC4=O)C2)CN3)c1F | Ki [7]: 6.5 nM
66 nM | > 10000 nM |  |  | CN(C)C(=O)c1cc(-c2cnc3c(c2)C2(CCC2)CN3)ccc1N | 
33 nM | > 10000 nM |  |  | CN(C)C(=O)c1cc(-c2cnc3c(c2)C2(CC2)CN3)ccc1N | 
0.47 nM | 700 nM |  |  | CCc1c[nH]c2ncc(-c3ccc(N)c(C(=O)N(C)C)c3F)cc12 | predicted hepatic clearance [2]: 16 mL/min/kg; predicted hepatic clearance [3]: 37 mL/min/kg; predicted hepatic clearance [4]: 80 mL/min/kg
2.5 nM | 800 nM | 23 ×10⁻⁶ cm/s | 1500 nM | CN(C)C(=O)c1c(N)ccc(-c2cnc3c(c2Cl)C2(CCCC2)CN3)c1F | 
1.5 nM |  |  |  | CN(C)C(=O)c1cc(-c2cnc3[nH]ccc3c2)ccc1N | 
63 nM |  | 0.8 ×10⁻⁶ cm/s | 7400 nM | CNC(=O)[C@H]1CC[C@@]2(CNc3ncc(-c4ccc(N)c(C(=O)N(C)C)c4F)c(Cl)c32)C1 (racemic) | 
14 nM |  | 0.4 ×10⁻⁶ cm/s | 15000 nM | CN(C)C(=O)c1c(N)ccc(-c2cnc3c(c2Cl)[C@]2(CC[C@H](c4ncn[nH]4)C2)CN3)c1F (racemic) | 
1.8 nM |  | 0.2 ×10⁻⁶ cm/s | 14000 nM | CN(C)C(=O)c1c(N)ccc(-c2cnc3c(c2Cl)[C@]2(CC[C@H](C(N)=O)C2)CN3)c1F (racemic) | 
 |  | 5 ×10⁻⁶ cm/s | 5000 nM | CN(C)C(=O)c1c(N)ccc(-c2cnc3c(c2Cl)[C@]2(CC[C@H](O)C2)CN3)c1F (racemic) | 
11 nM |  | 21 ×10⁻⁶ cm/s | 1700 nM | CN(C)C(=O)c1c(N)ccc(-c2cnc3c(c2Cl)[C@]2(CC[C@](C)(C#N)C2)CN3)c1F (racemic) | 
8.1 nM |  | 4.1 ×10⁻⁶ cm/s | 2000 nM | CN(C)C(=O)c1c(N)ccc(-c2cnc3c(c2Cl)[C@]2(CC[C@](C)(O)C2)CN3)c1F (racemic) | 

SMILES | Ki [1] | IC50 (Cytochrome P450 3A4) | Papp A→B at 10 µM [5] | IC50 [6] | further results
CN(C)C(=O)c1c(N)ccc(-c2cnc3c(c2Cl)[C@@]2(CC[C@@](C)(C(N)=O)C2)CN3)c1F | 85 nM |  | 0.4 ×10⁻⁶ cm/s | > 25000 nM | 
CN(C)C(=O)c1c(N)ccc(-c2cnc3c(c2Cl)[C@]2(CC[C@](C)(C(N)=O)C2)CN3)c1F | 0.8 nM |  |  | 440 nM | CLhep predicted [8]: 33 mL/min/kg; bioavailability [9]: 13%; Papp ([5]; mdck1, 10 µM): 0.3 10^-6 cm/s; clearance [10]: 57 mL/min/kg; CLhep predicted at 1 µM [11]: 9.5 mL/min/kg; Vd [12]: 1.9 L/kg; EC50 (T-cell line): 1560 nM; CLhep predicted [13]: 18 mL/min/kg
CN(C)C(=O)c1c(N)ccc(-c2cnc3c(c2Cl)[C@]2(CC[C@](C)(C(N)=O)C2)CN3)c1F (racemic) | 2 nM |  | 0.3 ×10⁻⁶ cm/s | 1100 nM | 
